Results on 9 compounds are retold here after patent US20240254082A1, “Substituted Isoindoline-1, 3-diketone PDE4 Inhibitor and Pharmaceutical Application Thereof” (SUZHOU INTRAGRAND PHARMA CO., LTD, priority 2021, published 2024).

Type in all cases: biochemical
For one experiment, the target named is T1, PDE4A1 (Homo sapiens, UniProt P27815).
T1 construct: purchased BPS 60340
The experiment is described as follows: Inhibition assay of PDE4A1 enzyme (FP kit). As to the method: 3. Inhibition assay of PDE4A1 enzyme:
(§1) Materials and Instruments:
(§2) FAM substrate: 25 μL of a FAM substrate stock solution was added into 2500 μL of PDE assay buffer. 25 μL of the diluted substrate was added to each reaction well.
(§3) 5 μL of the compound stock solution was added to 45 μL of DMSO to prepare a 1 mM diluent. 5 μL of the 1 mM diluent was added to 45 μL of PDE assay buffer to prepare a gradient dilution starting point. Then, according to the method of adding 5 μL of the previous concentration solution to 15 μL of PDE assay buffer, gradient dilution was carried out for 9 times to prepare compound working solutions with 10 concentrations. The working solutions were added to compound wells at 5 μL/well.
PDE4A1: First, a PDE4A1 stock solution was diluted by 100 times to a concentration of 4.9 ng/μL, 1.8 μL of the diluent was added to 2200 μL of PDE assay buffer, and the mixture was added to all compound wells and positive control wells at 20 μL/well. 20 μL of PDE assay buffer was added to substrate control wells.
Binding solution: 95 μL of binding buffer was added into 9.5 mL of binder diluent, and then mixed well. The obtained mixture was added to all wells at 100 μL/well.
(§4) FPsub=Substrate control FP.

The target of a further experiment is T2, PDE4B2 (Homo sapiens, UniProt Q07343).
T2 construct: purchased BPS 60343
The experiment is described as follows: Inhibition assay of PDE4B2 enzyme (FP kit). As to the method: 4. Inhibition assay of PDE4B2 enzyme:
as §1, §2, §3
PDE4B2: First, a PDE4B2 stock solution was diluted by 100 times to a concentration of 5.2 ng/μL, 3.2 μL of the diluent was added to 2200 μL of PDE assay buffer, and the mixture was added to all compound wells and positive control wells at 20 μL/well. 20 μL of PDE assay buffer was added to substrate control wells.
Binding solution: 95 μL of binder was added into 9.5 mL of binder diluent, and then mixed well. The obtained mixture was added to all wells at 100 μL/well.
as §4

Another experiment addresses T3, PDE4C1 (Homo sapiens, UniProt Q08493).
T3 construct: purchased BPS 60384
In words: Inhibition assay of PDE4C1 enzyme (FP kit). As for the experimental part: 5. Inhibition assay of PDE4C1 enzyme:
as §1
FAM substrate: 12.5 μL of a FAM substrate stock solution was added into 1250 μL of PDE assay buffer. 12.5 μL of the diluted substrate was added to each reaction well.
(§5) 5 μL of the compound stock solution was added to 45 μL of DMSO to prepare a 1 mM diluent. 5 μL of the 1 mM diluent was added to 45 μL of PDE assay buffer to prepare a gradient dilution starting point. Then, according to the method of adding 5 μL of the previous concentration solution to 15 μL of PDE assay buffer, gradient dilution was carried out for 9 times to prepare compound working solutions with 10 concentrations. The working solutions were added to compound wells at 2.5 μL/well.
PDE4C1: First, a PDE4C1 stock solution was diluted by 100 times to a concentration of 3.2 ng/μL, 13.75 μL of the diluent was added to 1100 μL of PDE assay buffer, and the mixture was added to all compound wells and positive control wells at 10 μL/well. 10 μL of PDE assay buffer was added to substrate control wells.
Binding solution: 50 μL of binder was added into 5 mL of binder diluent, and then mixed well. The obtained mixture was added to all wells at 50 μL/well.
as §4

A further experiment concerns the target PDE4D3 (Homo sapiens, UniProt Q08499). The experiment is described as follows: Inhibition assay of PDE4D3 enzyme (TR-FRET kit). As for the experimental part:
2. Inhibition assay of PDE4D3 enzyme:
as §1
FAM substrate: A stock solution of 20 μM FAM substrate was diluted to 200 nM with PDE assay buffer. 12.5 μL of the diluted substrate was added to each reaction well.
as §5
PDE4D3: 0.054 μL of a PDE4D3 recombinase stock solution was added to 1500 μL of PDE buffer, and the mixture was added to all compound wells and positive control wells at 10 μL/well. 10 μL of PDE assay buffer was added to substrate control wells.
Binding solution: 3750 μL of binding buffer A and 3750 μL of binding buffer B were mixed well. Then, 150 μL of a binder was added into the mixture and mixed well. 7.5 μL of a Tb donor was added and mixed well. The obtained mixture was added to all wells at 50 μL/well.
S520=Read value of sample 520 nm
S490=Read value of sample 490 nm
Tb520=Read value of Tb only 520 nm
Tb490=Read value of Tb only 490 nm
FRETp=Positive control FRET
FRETsub=Substrate control FRET.

For another experiment, the target named is PDE2A (Homo sapiens, UniProt O00408). In words: Selective inhibitory activity assay, PDE2A. The following applies: read-out: Inhibition rate (%) of PDE2A. As to the method:
(§6) 7. Selective inhibitory activity assay for PDE1, 2, 3, 5, 7, 10 and 11 enzymes
(§7) The selective specificity of compounds for PDE4 was assessed by assaying single concentrations of the compounds. For example, PDE1a enzyme, PDElc enzyme, PDE2a enzyme, PDE3a enzyme, PDE3b enzyme, PDE5a1 enzyme, PDE7a enzyme, PDE7b enzyme, PDE10a1 enzyme and PDE11a4 enzyme were tested. The selective inhibitory effects of different compounds on the enzymatic activities of PDEIC, PDE2A, PDE3B, PDE5A1, PDE7A, and PDE10A1 at concentrations of 10 μM and 1 μM, respectively, are shown in the table below: […]

The target of the next experiment is PDE7A (Homo sapiens, UniProt Q13946). The experiment is described as follows: Selective inhibitory activity assay, PDE7A. Conditions: read-out: Inhibition rate (%) of PDE7A. As for the experimental part:
as §6, §7

Another experiment has as its target PDE10A1 (Homo sapiens, UniProt Q9Y233). The experiment is described as follows: Selective inhibitory activity assay, PDE10A1. Conditions: read-out: Inhibition rate (%) of PDE10A1. As for the experimental part: as §6, §7
For another experiment, the target named is PDE1C (Homo sapiens, UniProt Q14123). The experiment is described as follows: Selective inhibitory activity assay, PDE1C. The following applies: read-out: Inhibition rate (%) of PDE1C. As to the method: as §6, §7
A further experiment has as its target PDE3B (Homo sapiens, UniProt Q13370). In words: Selective inhibitory activity assay, PDE3B. The following applies: read-out: Inhibition rate (%) of PDE3B. As to the method:
as §6, §7

In another experiment the target is PDE5A1 (Homo sapiens, UniProt O76074). In words: Selective inhibitory activity assay, PDE5A1. The following applies: read-out: Inhibition rate (%) of PDE5A1. As to the method:
as §6, §7

SMILES strings stand for the structures.

T2 sequence (Q07343 1-564 isoform Q07343-2): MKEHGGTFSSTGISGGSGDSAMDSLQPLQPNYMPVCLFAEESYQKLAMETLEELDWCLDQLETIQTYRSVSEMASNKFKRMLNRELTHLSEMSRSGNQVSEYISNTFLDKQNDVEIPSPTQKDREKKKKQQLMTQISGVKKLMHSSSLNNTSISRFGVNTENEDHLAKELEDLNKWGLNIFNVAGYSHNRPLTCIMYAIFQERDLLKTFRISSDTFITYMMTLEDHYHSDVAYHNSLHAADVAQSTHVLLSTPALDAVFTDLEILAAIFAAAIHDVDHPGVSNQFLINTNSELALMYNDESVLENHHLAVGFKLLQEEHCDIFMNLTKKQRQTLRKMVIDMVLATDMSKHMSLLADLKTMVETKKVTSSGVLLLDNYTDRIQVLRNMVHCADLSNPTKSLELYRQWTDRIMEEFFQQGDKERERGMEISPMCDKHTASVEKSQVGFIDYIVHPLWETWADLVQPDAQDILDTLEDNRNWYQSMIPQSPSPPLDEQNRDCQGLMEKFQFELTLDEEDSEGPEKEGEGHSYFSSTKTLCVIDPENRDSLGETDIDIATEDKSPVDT
Sequence of PDE3B (Q13370 whole entry, species assumed): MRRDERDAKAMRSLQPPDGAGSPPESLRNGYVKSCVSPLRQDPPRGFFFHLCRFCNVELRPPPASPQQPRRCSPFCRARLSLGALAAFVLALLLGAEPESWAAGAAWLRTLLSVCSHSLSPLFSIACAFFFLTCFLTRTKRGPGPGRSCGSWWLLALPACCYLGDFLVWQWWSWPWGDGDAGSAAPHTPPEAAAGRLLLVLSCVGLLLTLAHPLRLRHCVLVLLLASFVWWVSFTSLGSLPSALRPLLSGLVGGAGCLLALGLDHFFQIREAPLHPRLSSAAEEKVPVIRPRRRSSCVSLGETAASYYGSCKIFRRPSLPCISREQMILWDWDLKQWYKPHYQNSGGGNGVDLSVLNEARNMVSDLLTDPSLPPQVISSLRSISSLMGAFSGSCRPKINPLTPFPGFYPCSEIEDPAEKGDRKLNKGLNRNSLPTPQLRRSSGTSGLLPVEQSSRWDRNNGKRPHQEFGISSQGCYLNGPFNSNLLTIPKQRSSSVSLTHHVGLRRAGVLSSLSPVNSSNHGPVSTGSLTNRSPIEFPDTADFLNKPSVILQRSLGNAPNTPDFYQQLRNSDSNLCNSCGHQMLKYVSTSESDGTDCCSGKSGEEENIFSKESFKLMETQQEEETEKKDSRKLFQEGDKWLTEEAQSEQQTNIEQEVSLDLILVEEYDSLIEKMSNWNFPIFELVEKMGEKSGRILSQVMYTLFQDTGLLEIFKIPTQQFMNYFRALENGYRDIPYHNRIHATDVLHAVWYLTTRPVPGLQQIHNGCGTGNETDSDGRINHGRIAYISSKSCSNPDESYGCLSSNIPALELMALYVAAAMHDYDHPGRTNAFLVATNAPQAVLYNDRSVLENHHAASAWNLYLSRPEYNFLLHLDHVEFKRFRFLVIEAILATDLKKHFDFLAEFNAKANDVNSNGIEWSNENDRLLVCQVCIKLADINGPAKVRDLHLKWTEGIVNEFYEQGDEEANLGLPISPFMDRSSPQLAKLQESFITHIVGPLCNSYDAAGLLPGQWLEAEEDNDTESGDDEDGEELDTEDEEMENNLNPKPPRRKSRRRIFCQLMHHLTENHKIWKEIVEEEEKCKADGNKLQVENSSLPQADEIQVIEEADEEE
Sequence of PDE10A1 (Q9Y233 1-779 isoform Q9Y233-1, species assumed): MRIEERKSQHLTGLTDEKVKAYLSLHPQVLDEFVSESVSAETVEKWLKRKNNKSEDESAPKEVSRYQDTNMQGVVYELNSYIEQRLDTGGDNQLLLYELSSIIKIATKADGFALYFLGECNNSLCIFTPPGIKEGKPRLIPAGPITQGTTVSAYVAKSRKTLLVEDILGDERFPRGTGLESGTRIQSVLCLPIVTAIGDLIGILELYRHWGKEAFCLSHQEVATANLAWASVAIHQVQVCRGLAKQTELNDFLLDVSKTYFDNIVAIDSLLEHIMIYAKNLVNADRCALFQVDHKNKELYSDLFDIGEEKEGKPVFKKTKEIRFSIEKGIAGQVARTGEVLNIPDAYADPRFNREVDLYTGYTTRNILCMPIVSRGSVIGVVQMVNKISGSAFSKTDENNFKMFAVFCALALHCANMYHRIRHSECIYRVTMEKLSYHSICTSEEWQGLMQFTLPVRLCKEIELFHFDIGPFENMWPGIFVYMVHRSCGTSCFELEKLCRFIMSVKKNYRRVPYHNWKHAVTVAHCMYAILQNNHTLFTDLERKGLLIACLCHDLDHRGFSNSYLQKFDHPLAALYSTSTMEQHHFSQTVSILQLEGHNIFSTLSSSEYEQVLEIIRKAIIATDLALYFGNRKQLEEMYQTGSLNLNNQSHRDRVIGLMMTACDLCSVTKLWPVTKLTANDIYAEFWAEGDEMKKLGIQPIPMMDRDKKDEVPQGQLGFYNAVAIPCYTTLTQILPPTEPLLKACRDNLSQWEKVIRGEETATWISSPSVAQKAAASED
T1 sequence (P27815 1-647 isoform P27815-4): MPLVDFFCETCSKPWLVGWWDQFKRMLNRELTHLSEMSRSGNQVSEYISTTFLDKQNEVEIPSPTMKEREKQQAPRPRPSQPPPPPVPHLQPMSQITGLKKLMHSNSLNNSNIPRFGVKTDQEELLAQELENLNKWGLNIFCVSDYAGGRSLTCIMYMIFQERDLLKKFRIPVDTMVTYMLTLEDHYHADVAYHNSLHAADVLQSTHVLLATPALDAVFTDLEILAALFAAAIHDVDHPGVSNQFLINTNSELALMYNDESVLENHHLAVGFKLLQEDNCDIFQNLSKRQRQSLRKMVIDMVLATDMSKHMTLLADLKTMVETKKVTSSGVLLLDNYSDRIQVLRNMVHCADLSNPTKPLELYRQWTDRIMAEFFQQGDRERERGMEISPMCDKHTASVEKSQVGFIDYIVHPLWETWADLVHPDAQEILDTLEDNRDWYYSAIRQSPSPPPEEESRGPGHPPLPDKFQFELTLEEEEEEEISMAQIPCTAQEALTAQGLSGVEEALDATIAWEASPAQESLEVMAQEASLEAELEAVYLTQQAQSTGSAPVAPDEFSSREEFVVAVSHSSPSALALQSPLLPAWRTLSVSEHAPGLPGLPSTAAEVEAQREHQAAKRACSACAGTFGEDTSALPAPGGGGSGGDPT
T3 sequence (Q08493 whole entry): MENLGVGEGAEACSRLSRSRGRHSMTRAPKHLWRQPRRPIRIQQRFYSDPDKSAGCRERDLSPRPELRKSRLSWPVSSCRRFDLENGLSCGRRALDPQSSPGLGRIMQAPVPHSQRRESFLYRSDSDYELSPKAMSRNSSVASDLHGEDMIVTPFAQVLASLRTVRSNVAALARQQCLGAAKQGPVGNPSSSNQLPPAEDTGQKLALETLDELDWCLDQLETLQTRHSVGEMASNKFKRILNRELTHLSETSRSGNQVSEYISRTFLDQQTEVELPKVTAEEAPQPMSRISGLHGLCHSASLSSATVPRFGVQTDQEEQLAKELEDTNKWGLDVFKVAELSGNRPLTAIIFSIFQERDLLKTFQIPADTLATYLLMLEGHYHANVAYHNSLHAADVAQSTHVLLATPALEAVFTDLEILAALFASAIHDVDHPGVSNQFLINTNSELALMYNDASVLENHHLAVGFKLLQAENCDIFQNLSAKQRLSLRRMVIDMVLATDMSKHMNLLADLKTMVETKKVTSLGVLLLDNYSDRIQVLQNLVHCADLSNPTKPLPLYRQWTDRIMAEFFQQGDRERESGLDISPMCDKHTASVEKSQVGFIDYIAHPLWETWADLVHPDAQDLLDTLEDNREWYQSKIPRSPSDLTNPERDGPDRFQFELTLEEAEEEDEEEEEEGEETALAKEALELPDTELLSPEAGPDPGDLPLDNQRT
Sequence of PDE1C (Q14123 whole entry, species assumed): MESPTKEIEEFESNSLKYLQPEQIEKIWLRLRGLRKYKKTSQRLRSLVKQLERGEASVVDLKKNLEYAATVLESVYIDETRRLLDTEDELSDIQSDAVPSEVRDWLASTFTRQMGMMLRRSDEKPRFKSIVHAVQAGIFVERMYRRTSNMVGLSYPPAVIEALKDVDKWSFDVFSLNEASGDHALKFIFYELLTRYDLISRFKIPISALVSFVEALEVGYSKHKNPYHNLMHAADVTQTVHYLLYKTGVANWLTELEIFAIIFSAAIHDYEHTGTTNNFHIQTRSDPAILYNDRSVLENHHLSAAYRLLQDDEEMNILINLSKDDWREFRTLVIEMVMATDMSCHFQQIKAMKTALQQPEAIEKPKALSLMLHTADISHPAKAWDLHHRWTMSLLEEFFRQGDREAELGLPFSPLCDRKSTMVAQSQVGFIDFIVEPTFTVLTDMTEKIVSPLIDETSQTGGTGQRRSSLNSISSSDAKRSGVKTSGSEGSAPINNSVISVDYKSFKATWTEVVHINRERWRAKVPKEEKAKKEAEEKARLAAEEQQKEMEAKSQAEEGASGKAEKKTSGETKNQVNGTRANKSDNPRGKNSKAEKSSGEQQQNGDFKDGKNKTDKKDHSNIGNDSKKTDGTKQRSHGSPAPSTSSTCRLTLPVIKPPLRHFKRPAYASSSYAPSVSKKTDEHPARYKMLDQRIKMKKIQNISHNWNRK
Sequence of PDE7A (Q13946 whole entry, species assumed): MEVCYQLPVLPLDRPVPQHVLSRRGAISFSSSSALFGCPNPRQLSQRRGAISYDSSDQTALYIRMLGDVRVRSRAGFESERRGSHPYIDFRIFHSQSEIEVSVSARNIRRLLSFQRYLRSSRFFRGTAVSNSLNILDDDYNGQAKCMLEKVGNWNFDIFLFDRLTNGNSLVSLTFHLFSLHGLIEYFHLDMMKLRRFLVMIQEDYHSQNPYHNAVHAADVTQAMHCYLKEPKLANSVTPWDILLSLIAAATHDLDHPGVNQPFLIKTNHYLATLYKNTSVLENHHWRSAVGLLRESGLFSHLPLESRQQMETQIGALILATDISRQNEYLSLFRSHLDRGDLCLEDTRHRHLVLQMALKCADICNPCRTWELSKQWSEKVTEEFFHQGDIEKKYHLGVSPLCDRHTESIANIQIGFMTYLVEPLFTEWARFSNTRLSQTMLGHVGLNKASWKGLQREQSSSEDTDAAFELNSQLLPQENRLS

Take `CCCCC(O)c1ccc(NC(C)=O)c2c1C(=O)N([C@H](CS(C)(=O)=O)c1ccc(OC)c(OCC)c1)C2=O` (mixture of isomers) [Example 55]: the IC50 is < 100 nM against PDE4A1, < 100 nM against PDE4B2, < 200 nM against PDE4C1 and < 5 nM at PDE4D3.

As to `CCCCCc1ccc(NC(=O)CCCl)c2c1C(=O)N([C@H](CS(C)(=O)=O)c1ccc(OC)c(OCC)c1)C2=O` [Example 24], the inhibition at 1 µM on PDE2A is 0%; at PDE7A it was 0%; on PDE10A1, 6.04%; on PDE1C it was 3.89%; at PDE3B, 0%; at PDE5A1, 0%. The inhibition at 10 µM at PDE2A is 7.79%; at PDE7A, 4.15%; at PDE10A1, 11.4%; on PDE1C, 34.5%; at PDE3B, -0.81%; at PDE5A1, 11.5%. The compound also came in with an IC50 at PDE4D3 of 10 to 50 nM.

`CCCCCc1ccc(NC(=O)CCl)c2c1C(=O)N([C@H](CS(C)(=O)=O)c1ccc(OC)c(OCC)c1)C2=O` [Example 25, (S)-2-[1-(3-ethoxy-4-methoxyphenyl)-2-alkylsulfonylethyl]-4-(chloroacetamido)-7-pentyl isoindoline-1,3-diketone]: the inhibition at 1 µM on PDE2A was 20.4%; at PDE7A, 4.98%; at PDE10A1, 3.02%; on PDE1C, 3.89%; at PDE3B, 0%; on PDE5A1, 0%. Besides, the inhibition at 10 µM on PDE2A is 13.4%; at PDE7A, 24.6%; on PDE10A1 it was 11.1%; on PDE1C it was 33.8%; at PDE3B, 0.19%; at PDE5A1, 8.17%. This compound returned a half-inhibitory concentration (IC50) at PDE4D3 of 10 to 50 nM.

Regarding `CCCCc1ccc(NC(=O)CCCCl)c2c1C(=O)N([C@H](CS(C)(=O)=O)c1ccc(OC)c(OCC)c1)C2=O` [Example 27, (S)-2-[1-(3-ethoxy-4-methoxyphenyl)-2-alkylsulfonylethyl]-4-(γ-chlorobutyramido)-7-butyl isoindoline-1,3-diketone], the inhibition at 1 µM at PDE2A came to 0%; at PDE7A, 2.21%; at PDE10A1, 11.9%; on PDE1C it was 12.1%; at PDE3B, 0%; at PDE5A1 it was 0%. Also, the inhibition at 10 µM on PDE2A was 8.1%; at PDE7A, 14.7%; at PDE10A1, 1.01%; at PDE1C it was 67.5%; at PDE3B, -1.31%; at PDE5A1 it was 8.14%. The compound further yielded an IC50 against PDE4D3 of 10 to 50 nM.

Consider `CCCCCc1ccc(NC(=O)CF)c2c1C(=O)N([C@H](CS(C)(=O)=O)c1ccc(OC)c(OCC)c1)C2=O` [Example 28, (S)-2-[1-(3-ethoxy-4-methoxyphenyl)-2-alkylsulfonylethyl]-4-fluoroacetamido-7-pentyl isoindoline-1,3-diketone], for which the inhibition at 1 µM stood at 0% on PDE2A; 0.55% on PDE7A; 29.1% on PDE10A1; 1.46% at PDE1C; 3.69% on PDE3B; 0% on PDE5A1. The inhibition at 10 µM on PDE2A came out at 5.83%; at PDE7A, 10.5%; on PDE10A1, 0.04%; at PDE1C it was 24.8%; at PDE3B it was 6.44%; on PDE5A1 it was 4.16%. Further, the half-inhibitory concentration (IC50) on PDE4D3 lay within 5 to 10 nM.

Consider `C=CC(=O)Nc1ccc(CCCCC)c2c1C(=O)N([C@H](CS(C)(=O)=O)c1ccc(OC)c(OCC)c1)C2=O` [Example 29, (S)-2-[1-(3-ethoxy-4-methoxyphenyl)-2-alkylsulfonylethyl]-4-acrylamido-7-pentyl isoindoline-1,3-diketone], for which the inhibition at 1 µM amounted to 7.19% on PDE2A; 17.4% on PDE7A; 0% on PDE10A1; 4.13% at PDE1C; 0% on PDE3B; 5.72% on PDE5A1. Also, the inhibition at 10 µM is 15.8% on PDE2A; 19.9% at PDE7A; 16.1% at PDE10A1; 26% on PDE1C; -1.94% on PDE3B; 13% at PDE5A1. This compound came in with an IC50 on PDE4D3 of 5 to 10 nM.

As to `[2H]C([2H])(CCCC)c1ccc(NC(C)=O)c2c1C(=O)N([C@H](CS(C)(=O)=O)c1ccc(OC)c(OCC)c1)C2=O` [Example 32], the IC50 at PDE4A1 is < 100 nM; at PDE4B2 it was < 100 nM; at PDE4C1 it was < 200 nM; at PDE4D3 it was < 5 nM.

Take `[2H]c1c([2H])c(NC(C)=O)c2c(c1CCCCC)C(=O)N([C@H](CS(C)(=O)=O)c1ccc(OC)c(OCC)c1)C2=O` [Example 33]: the IC50 was < 100 nM against PDE4A1, < 100 nM against PDE4B2, < 200 nM against PDE4C1 and < 5 nM against PDE4D3.

Take `CCCCC(=O)c1ccc(NC(C)=O)c2c1C(=O)N([C@H](CS(C)(=O)=O)c1ccc(OC)c(OCC)c1)C2=O` [Example 56]: the IC50 on PDE4A1 is < 100 nM; on PDE4B2, < 100 nM; against PDE4C1, 200 to 500 nM; against PDE4D3, 10 to 50 nM.
